In ChEMBL document CHEMBL1201862, “PubChem BioAssay data set” (2004):
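1) Cells in 96-well plates. 2) Compound, 48 h, 5 concentrations. 3) Linear interpolation between surrounding doses. 4) Unreached endpoint = highest concentration. Abbreviation: GI50, concentration required for 50% inhibition of growth.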 Active and inactive are the calls of the source. Cut-off read from the data, not from the text of the source: active = GI50 up to about 1.1 µM and inactive = higher.

How the values were obtained:
Experiment in all cases: growth of human tumour cells (NCI), 48 h
A498 = system: A498
CAKI-1 = system: CAKI-1
COLO 205 = system: COLO 205
HCC 2998 = system: HCC 2998
HCT-15 = system: HCT-15
HL-60 = system: HL-60
IGROV-1 = system: IGROV-1
K562 = system: K562
MCF7 = system: MCF7
MDA-MB-231 = system: MDA-MB-231
MDA-MB-435 = system: MDA-MB-435
Malme-3M = system: Malme-3M
NCI-H460 = system: NCI-H460
OVCAR-4 = system: OVCAR-4
OVCAR-5 = system: OVCAR-5
RXF 393 = system: RXF 393
SK-MEL-5 = system: SK-MEL-5
SR = system: SR
T47D = system: T47D
UO-31 = system: UO-31

| Compound | GI50 (A498) | GI50 (CAKI-1) | GI50 (COLO 205) | GI50 (HCC 2998) | GI50 (HCT-15) | GI50 (HL-60) | GI50 (IGROV-1) | GI50 (K562) | GI50 (MCF7) | GI50 (MDA-MB-231) | GI50 (MDA-MB-435) | GI50 (Malme-3M) | GI50 (NCI-H460) | GI50 (OVCAR-4) | GI50 (OVCAR-5) | GI50 (RXF 393) | GI50 (SK-MEL-5) | GI50 (SR) | GI50 (T47D) | GI50 (UO-31) |
| --- | --- | --- | --- | --- | --- | --- | --- | --- | --- | --- | --- | --- | --- | --- | --- | --- | --- | --- | --- | --- |
| CC(C(=O)O)C(C)(O)C(=O)O (stereo not drawn) | > 100 µM (inactive) | > 100 µM (inactive) | > 100 µM (inactive) | > 100 µM (inactive) | > 100 µM | > 100 µM (inactive) | > 100 µM (inactive) | > 100 µM (inactive) | > 100 µM (inactive) | > 100 µM (inactive) | > 100 µM (inactive) | > 100 µM (inactive) | > 100 µM (inactive) | > 100 µM (inactive) | 61.8 µM (inactive) | > 100 µM (inactive) | > 100 µM (inactive) | > 100 µM (inactive) | > 100 µM (inactive) | > 100 µM (inactive) |
| CCCCCC(/C=N/NC(N)=S)C(O)(C(F)(F)F)C(F)(F)F (stereo not drawn) | > 10 µM (inactive) | > 10 µM (inactive) | > 10 µM (inactive) | > 10 µM (inactive) | > 10 µM |  | > 10 µM (inactive) | > 10 µM (inactive) | > 10 µM (inactive) | > 10 µM (inactive) | > 10 µM (inactive) | > 10 µM (inactive) | > 10 µM (inactive) | > 10 µM (inactive) | > 10 µM (inactive) | > 10 µM (inactive) | > 10 µM (inactive) | > 10 µM (inactive) | > 10 µM (inactive) |  |
| Nc1nccc2c1ncn2C1C=C(CO)C(O)C1O (stereo not drawn) | > 100 µM (inactive) | 21.1 µM (inactive) | 19.7 µM (inactive) | 48.2 µM (inactive) | 13.2 µM | 1.82 µM (inactive) | > 95.5 µM (inactive) | 1.86 µM (inactive) | 4.29 µM (inactive) | > 100 µM (inactive) | > 100 µM (inactive) | 43.6 µM (inactive) | 1.41 µM (inactive) | 59.4 µM (inactive) | 23.4 µM (inactive) | 87.9 µM (inactive) | 356 µM (inactive) | 3.29 µM (inactive) | > 100 µM (inactive) | 3.39 µM (inactive) |
| COC(=O)CCC1(C)C2CCC1/C(=N/O)C2 (stereo not drawn) | > 100 µM (inactive) | > 100 µM (inactive) | > 100 µM (inactive) | > 100 µM (inactive) | > 100 µM |  | > 100 µM (inactive) | > 100 µM (inactive) | > 100 µM (inactive) | > 100 µM (inactive) | > 100 µM (inactive) | > 100 µM (inactive) |  | > 100 µM (inactive) | > 100 µM (inactive) | > 100 µM (inactive) | > 100 µM (inactive) | > 100 µM (inactive) | > 100 µM (inactive) | > 100 µM (inactive) |
| Cc1ccc2c(c1)C(=S)N1CSCC1c1nncn1-2 (stereo not drawn) | > 100 µM (inactive) | > 100 µM (inactive) | > 100 µM (inactive) | > 100 µM (inactive) | > 100 µM |  | > 100 µM (inactive) | > 100 µM (inactive) | > 100 µM (inactive) | > 100 µM (inactive) | > 100 µM (inactive) | > 100 µM (inactive) | > 100 µM (inactive) | > 100 µM (inactive) | > 100 µM (inactive) | > 100 µM (inactive) | > 100 µM (inactive) | > 100 µM (inactive) | > 100 µM (inactive) | > 100 µM (inactive) |
| COc1cc(S(=O)(=O)Nc2nc(-c3ccc(N)cc3)cs2)ccc1Cl | 84.3 µM (inactive) | 73.5 µM (inactive) | 32.1 µM (inactive) |  | 63.8 µM | 45.7 µM (inactive) | 44.7 µM (inactive) | 58.2 µM (inactive) | 36.8 µM (inactive) | > 100 µM (inactive) | 83.6 µM (inactive) | > 100 µM (inactive) | 84.9 µM (inactive) | 34 µM (inactive) | > 100 µM (inactive) | 38.1 µM (inactive) | 38.6 µM (inactive) | 61 µM (inactive) | 38.5 µM (inactive) | 85.7 µM (inactive) |
| O=c1cc(-c2ccccc2)nc(-n2[nH]c3c(c2=O)CCCC3)[nH]1 | 17.6 µM (inactive) | 7.18 µM (inactive) | 3.82 µM (inactive) |  | 1.7 µM | 2.73 µM (inactive) | 4.53 µM (inactive) | 2.83 µM (inactive) | 3.37 µM (inactive) | 2.92 µM (inactive) | 4.59 µM (inactive) | 11.1 µM (inactive) | 1.08 µM (active) | 1.85 µM (inactive) | 92.5 µM (inactive) | 0.656 µM (active) | 4.78 µM (inactive) | 1.03 µM (active) | 1.56 µM (inactive) | 7.29 µM (inactive) |
